Experimental data as given in US20220144815A1, “1,3,4-OXADIAZOLES AND THEIR DERIVATIVES AS NEW ANTIFUNGAL AGENTS” (Bayer Aktiengesellschaft, priority 2018, published 2022).

Test: Log P by HPLC on reversed phase columns, method [a] (EEC directive 79/831 Annex V.A8)
Format: physicochemical
Conditions: log P determined according to method [a] (HPLC on reversed phase columns)
Procedure: Measurement of Log P values as provided herein was performed according to EEC directive 79/831 Annex V.A8 by HPLC (High Performance Liquid Chromatography) on reversed phase columns with the following methods: • ^[a] Log P value is determined by measurement of LC-UV, in an acidic range, with 0.1% formic acid in water and acetonitrile as eluent (linear gradient from 10% acetonitrile to 95% acetonitrile). • ^[b] Log P value is determined by measurement of LC-UV, in a neutral range, with 0.001 molar ammonium acetate solution in water and acetonitrile as eluent (linear gradient from 10% acetonitrile to 95% acetonitrile). • ^[c] Log P value is determined by measurement of LC-UV, in an acidic range, with 0.1% phosphoric acid and acetonitrile as eluent (linear gradient from 10% acetonitrile to 95% acetonitrile). If more than one Log P value is available within the same method, all the values are given and separated by “+”. Calibration was done with straight-chain alkan2-ones (with 3 to 16 carbon atoms) with known Log P values (measurement of Log P values using retention times with linear interpolation between successive alkanones). Lambda-max-values were determined using UV-spectra from 200 nm to 400 nm and the peak values of the chromatographic signals In table 1, the log P values were determined according to method [^a]. In table 2, the log P values were determined according to method [^a].

logP | Compound
1.68 | C#CCNC(=O)c1ccc(-c2nnc(C(F)F)o2)cn1 [Example I-039]
2.95 | CC(Nc1ccc(-c2nnc(C(F)F)o2)cn1)c1ccc(F)cc1 (stereo not shown) [Example I-052]
2.75 | FC(F)c1nnc(-c2cnc(OCc3ccccc3)nc2)o1 [Example I-090]
2.16 | FC(F)c1nnc(-c2cnc(NCC3CC3)nc2)o1 [Example I-067]
2.57 | Cc1noc(C)c1-c1ncc(-c2nnc(C(F)F)o2)cn1 [Example I-081]
1.55 | FC(F)c1nnc(-c2cnc(Cl)nc2)o1 [Example I-061]
2.89 | FC(F)c1nnc(-c2ccc(Br)cc2)o1 [Example I-009]
3.57 | FC(F)c1nnc(-c2ccc(-c3ccccc3)cc2)o1 [Example I-007]
1.66 | O=C(O)c1ccc(-c2nnc(C(F)F)o2)cc1 [Example I-001]
3.29 | O=C(Nc1ccc(F)cc1F)c1ccc(-c2nnc(C(F)(F)F)s2)cc1 [Example I-029]
1.91 | FC(F)c1nnc(-c2ccc(N3CCOCC3)nc2)o1 [Example I-041]
3.01 | COc1ccc(-c2ncc(-c3nnc(C(F)F)o3)cn2)cc1 [Example I-089]
0.76 | CN(C)Nc1ncc(-c2nnc(C(F)F)o2)cn1 [Example I-064]
1.48 | COCCNc1ncc(-c2nnc(C(F)F)o2)cn1 [Example I-068]
2.31 | FC(F)c1nnc(-c2ccc(-n3cccn3)nc2)o1 [Example I-036]
2.54 | O=C(Cc1ccccc1)Nc1ccc(-c2nnc(C(F)F)o2)cn1 [Example I-050]
2.80 | CN(c1ccccc1)c1ncc(-c2nnc(C(F)F)o2)cn1 [Example I-087]
2.98 | FC(F)c1nnc(-c2cnc(-c3ccccc3)nc2)o1 [Example I-069]

Same assay, conditions: reversed phase HPLC column; log P determined according to method [a] (HPLC on reversed phase columns); read-out: logP

chromatographic logP | Compound
2.62 | Fc1ccccc1CNc1ncc(-c2nnc(C(F)F)o2)cn1 [I.111, 5-[5-(difluoromethyl)-1,3,4-oxadiazol-2-yl]-N-(2-fluorobenzyl)pyrimidin-2-amine]
3.57 | FC(F)c1nnc(-c2cnc(NC3(C4CCCCC4)CC3)nc2)o1 [I.126, N-(1-cyclohexylcyclopropyl)-5-[5-(difluoromethyl)-1,3,4-oxadiazol-2-yl]pyrimidin-2-amine]
3.34 | FC(F)c1nnc(-c2cnc(NC3(c4ccccc4Cl)CC3)nc2)o1 [I.163, N-[1-(2-chlorophenyl)cyclopropyl]-5-[5-(difluoromethyl)-1,3,4-oxadiazol-2-yl]pyrimidin-2-amine]
3.19 | Fc1ccc(C2(Oc3ncc(-c4nnc(C(F)F)o4)cn3)CC2)cc1 [I.149, 5-[5-(difluoromethyl)-1,3,4-oxadiazol-2-yl]-2-{[1-(4-fluorophenyl)cyclopropyl]oxy}pyrimidine]
2.89 | CC(Nc1ncc(-c2nnc(C(F)F)o2)cn1)c1ccccc1F (racemic) [I.124, 5-[5-(difluoromethyl)-1,3,4-oxadiazol-2-yl]-N-[(1RS)-1-(2-fluorophenyl)ethyl]pyrimidin-2-amine]
4.21 | FC(F)c1nnc(-c2cnc(-c3cccc(Cl)c3)nc2)o1 [I.100, 2-(3-chlorophenyl)-5-[5-(difluoromethyl)-1,3,4-oxadiazol-2-yl]pyrimidine]
2.59 | FC(F)c1nnc(-c2cnc(-c3cncc(Cl)c3)nc2)o1 [I.103, 2-(5-chloropyridin-3-yl)-5-[5-(difluoromethyl)-1,3,4-oxadiazol-2-yl]pyrimidine]
1.66 | FC(F)c1nnc(-c2cnc(OC3(c4ccccn4)COC3)nc2)o1 [I.143, 5-[5-(difluoromethyl)-1,3,4-oxadiazol-2-yl]-2-{[3-(pyridin-2-yl)oxetan-3-yl]oxy}pyrimidine]

Same assay, conditions: reversed phase HPLC column; method [a], HPLC on reversed phase columns; read-out: logP

chromatographic logP | Compound
2.81 | COc1cccc(C2(Nc3ncc(-c4nnc(C(F)F)o4)cn3)CC2)c1F [I.236, 5-[5-(difluoromethyl)-1,3,4-oxadiazol-2-yl]-N-[1-(2-fluoro-3-methoxyphenyl)cyclopropyl]pyrimidin-2-amine]
3.55 | CC(C)(Nc1ncc(-c2nnc(C(F)F)o2)cn1)c1ccc(Cl)cc1 [I.231, N-[2-(4-chlorophenyl)propan-2-yl]-5-[5-(difluoromethyl)-1,3,4-oxadiazol-2-yl]pyrimidin-2-amine]
3.98 | CN(c1ncc(-c2nnc(C(F)F)o2)cn1)C1(c2ccccc2F)CC1 [I.221, 5-[5-(difluoromethyl)-1,3,4-oxadiazol-2-yl]-N-[1-(2-fluorophenyl)cyclopropyl]-N-methylpyrimidin-2-amine]
3.13 | CC(CNc1ncc(-c2nnc(C(F)F)o2)cn1)c1ccc(F)cc1 (racemic) [I.211, 5-[5-(difluoromethyl)-1,3,4-oxadiazol-2-yl]-N-[(2RS)-2-(4-fluorophenyl)propyl]pyrimidin-2-amine]
3.33 | Fc1ccc(C2(Nc3ncc(-c4nnc(C(F)F)o4)cn3)CCC2)cc1 [I.220, 5-[5-(difluoromethyl)-1,3,4-oxadiazol-2-yl]-N-[1-(4-fluorophenyl)cyclobutyl]pyrimidin-2-amine]
3.16 | FC(F)c1nnc(-c2cnc(NC3(c4ccc(Cl)cc4)CC3)nc2)o1 [I.226, N-[1-(4-chlorophenyl)cyclopropyl]-5-[5-(difluoromethyl)-1,3,4-oxadiazol-2-yl]pyrimidin-2-amine]
3.53 | CC(Nc1ncc(-c2nnc(C(F)F)o2)cn1)c1cccc(OC(F)(F)F)c1 (racemic) [I.257, 5-[5-(difluoromethyl)-1,3,4-oxadiazol-2-yl]-N-{(1RS)-1-[3-(trifluoromethoxy)phenyl]ethyl}pyrimidin-2-amine]
0.91 | CC(C)(Nc1ncc(-c2nnc(C(F)F)o2)cn1)c1cccnc1 [I.199, 5-[5-(difluoromethyl)-1,3,4-oxadiazol-2-yl]-N-[2-(pyridin-3-yl)propan-2-yl]pyrimidin-2-amine]
4.05 | Fc1ccc([C@H](Nc2ncc(-c3nnc(C(F)F)o3)cn2)C2CCCC2)cc1 [I.244, N—[(R)-cyclopentyl(4-fluorophenyl)methyl]-5-[5-(difluoromethyl)-1,3,4-oxadiazol-2-yl]pyrimidin-2-amine]
2.7 | CC(Nc1ncc(-c2nnc(C(F)F)o2)cn1)c1cccs1 (racemic) [I.192, 5-[5-(difluoromethyl)-1,3,4-oxadiazol-2-yl]-N-[(1RS)-1-(2-thienyl)ethyl]pyrimidin-2-amine]
3.24 | FC(F)c1nnc(-c2cnc(NC3(c4cccc(C(F)(F)F)c4)CC3)nc2)o1 [I.249, 5-[5-(difluoromethyl)-1,3,4-oxadiazol-2-yl]-N-{1-[3-(trifluoromethyl)phenyl]cyclopropyl}pyrimidin-2-amine]
3.63 | FC(F)c1nnc(-c2cnc(NC3(c4cc(Cl)cc(Cl)c4)CC3)nc2)o1 [I.254, N-[1-(3,5-dichlorophenyl)cyclopropyl]-5-[5-(difluoromethyl)-1,3,4-oxadiazol-2-yl]pyrimidin-2-amine]
3.28 | Cc1ccccc1C(C)(C)Nc1ncc(-c2nnc(C(F)F)o2)cn1 [I.205, 5-[5-(difluoromethyl)-1,3,4-oxadiazol-2-yl]-N-[2-(2-methylphenyl)propan-2-yl]pyrimidin-2-amine]
3.08 | CC(C)(Nc1ncc(-c2nnc(C(F)F)o2)cn1)c1ccccc1 [I.197, 5-[5-(difluoromethyl)-1,3,4-oxadiazol-2-yl]-N-(2-phenylpropan-2-yl)pyrimidin-2-amine]
3.19 | CC(C)(Nc1ncc(-c2nnc(C(F)F)o2)cn1)c1ccccc1F [I.212, 5-[5-(difluoromethyl)-1,3,4-oxadiazol-2-yl]-N-[2-(2-fluorophenyl)propan-2-yl]pyrimidin-2-amine]
0.74 | CC(Nc1ncc(-c2nnc(C(F)F)o2)cn1)c1cccnc1 (racemic) [I.188, 5-[5-(difluoromethyl)-1,3,4-oxadiazol-2-yl]-N-[(1RS)-1-(pyridin-3-yl)ethyl]pyrimidin-2-amine]
0.93 | Cc1ccnc(C2(Nc3ncc(-c4nnc(C(F)F)o4)cn3)CC2)c1 [I.203, 5-[5-(difluoromethyl)-1,3,4-oxadiazol-2-yl]-N-[1-(4-methylpyridin-2-yl)cyclopropyl]pyrimidin-2-amine]
2.84 | Fc1ccc(C2(Nc3ncc(-c4nnc(C(F)F)o4)cn3)CC2)cc1F [I.229, 5-[5-(difluoromethyl)-1,3,4-oxadiazol-2-yl]-N-[1-(3,4-difluorophenyl)cyclopropyl]pyrimidin-2-amine]
3.18 | FC(F)c1nnc(-c2cnc(NC3(c4ccco4)CCCC3)nc2)o1 [I.208, 5-[5-(difluoromethyl)-1,3,4-oxadiazol-2-yl]-N-[1-(2-furyl)cyclopentyl]pyrimidin-2-amine]
3.37 | FC(F)c1nnc(-c2cnc(NC3(c4cccc(OC(F)(F)F)c4)CC3)nc2)o1 [I.262, 5-[5-(difluoromethyl)-1,3,4-oxadiazol-2-yl]-N-{1-[3-(trifluoromethoxy)phenyl]cyclopropyl}pyrimidin-2-amine]
